# According to paper PMC8330742, “New benzothieno[2,3-c]pyridines as non-steroidal CYP17 inhibitors: design, synthesis, anticancer screening, apoptosis induction, and in silico ADME profile studies” (Journal of Enzyme Inhibition and Medicinal Chemistry, 2021):
# Experiments:
# Assay in all cases: NCI-60 SRB screen;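 as to IC50: half-maximal inhibitory concentration read as cell viability unlike GI50 net growth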
# M14 = format: cell-based, human; conditions: M14
# HOP-92 = format: cell-based, human; conditions: HOP-92
# SN12C = format: cell-based, human; conditions: SN12C
# HOP-62 = format: cell-based, human; conditions: HOP-62
# SF-295 = format: cell-based, human; conditions: SF-295
# IGROV1 = format: cell-based, human; conditions: IGROV1
# HCT-15 = format: cell-based, human; conditions: HCT-15
# OVCAR-8 = format: cell-based, human; conditions: OVCAR-8
# SK-MEL-28 = format: cell-based; conditions: SK-MEL-28
# CAKI-1 = format: cell-based, human; conditions: CAKI-1
# SK-MEL-5 = format: cell-based, human; conditions: SK-MEL-5
# COLO 205 = format: cell-based, human; conditions: COLO 205
# OVCAR-3 = format: cell-based, human; conditions: OVCAR-3
# NCI-H226 = format: cell-based, human; conditions: NCI-H226
# MDA-MB-435 = format: cell-based
# SF-268 = format: cell-based, human; conditions: SF-268
# SR = format: cell-based
# ACHN = format: cell-based
# RXF 393 = format: cell-based, human; conditions: RXF 393
# SK-OV-3 = format: cell-based, human; conditions: SK-OV-3
# 786-0 = format: cell-based; conditions: 786-0
# KM12 = format: cell-based, human; conditions: KM12
# [1] = Homo sapiens, single dose 10^−5 M, read-out: Growth inhibition (%)
# [2] = Homo sapiens, IGROV-1, five dose
compound,measurement,setting,value
"N#CC1C(=O)NC(c2ccccc2[N+](=O)[O-])c2sc3c(F)cccc3c21 (centres unmarked) [Compound 5c, 4-Cyano-8-fluoro-1-(2-nitrophenyl)-1,2-dihydro[1]benzothieno[2,3-c] pyridin-3(4H)-one]",IC50,"M14; Homo sapiens, five dose",28.2 µM
same,inhibition at 10 µM,M14; [1],7.3%
same,TGI,M14; five dose,100 µM
same,TGI,HOP-92; five dose,100 µM
same,GI50,"HOP-92; Homo sapiens, five dose",12.6 µM
same,IC50,"HOP-92; Homo sapiens, five dose",79.4 µM
same,inhibition at 10 µM,HOP-92; [1],115%
same,inhibition at 10 µM,"SN12C; Homo sapiens, SN 12 C, single dose 10^−5 M, read-out: Growth inhibition (%)",20.9%
same,GI50,"SN12C; Homo sapiens, five dose",18.6 µM
same,IC50,"SN12C; Homo sapiens, five dose",34.7 µM
same,TGI,SN12C; five dose,100 µM
same,TGI,HOP-62; five dose,100 µM
same,GI50,"HOP-62; Homo sapiens, five dose",10 µM
same,IC50,"HOP-62; Homo sapiens, five dose",22.9 µM
same,inhibition at 10 µM,HOP-62; [1],66.3%
same,GI50,"SF-295; Homo sapiens, five dose",0.6 µM
same,IC50,"SF-295; Homo sapiens, five dose",10.5 µM
same,inhibition at 10 µM,SF-295; [1],79.2%
same,TGI,SF-295; five dose,100 µM
same,GI50,IGROV1; [2],0.004 µM
same,IC50,IGROV1; [2],0.178 µM
same,inhibition at 10 µM,"IGROV1; Homo sapiens, IGROV-1, single dose 10^−5 M, read-out: Growth inhibition (%)",99.7%
same,TGI,IGROV1; five dose,100 µM
same,TGI,HCT-15; five dose,100 µM
same,GI50,"HCT-15; Homo sapiens, five dose",11.4 µM
same,IC50,"HCT-15; Homo sapiens, five dose",16.6 µM
same,inhibition at 10 µM,HCT-15; [1],12.3%
same,GI50,"OVCAR-8; Homo sapiens, five dose",12 µM
same,IC50,"OVCAR-8; Homo sapiens, five dose",20.4 µM
same,inhibition at 10 µM,OVCAR-8; [1],25.1%
same,TGI,OVCAR-8; five dose,100 µM
same,GI50,"SK-MEL-28; Homo sapiens, five dose",31.2 µM
same,IC50,"SK-MEL-28; Homo sapiens, five dose",66.1 µM
same,LC50 (50% lethal concentration),"SK-MEL-28; Homo sapiens, five dose",> 100 µM
same,inhibition at 10 µM,SK-MEL-28; [1],-10.6%
same,TGI,SK-MEL-28; five dose,100 µM
same,TGI,CAKI-1; five dose,100 µM
same,GI50,"CAKI-1; Homo sapiens, five dose",0.17 µM
same,IC50,"CAKI-1; Homo sapiens, five dose",0.562 µM
same,inhibition at 10 µM,CAKI-1; [1],94.7%
same,GI50,"SK-MEL-5; Homo sapiens, five dose",13 µM
same,IC50,"SK-MEL-5; Homo sapiens, five dose",20.9 µM
same,inhibition at 10 µM,SK-MEL-5; [1],24.9%
same,TGI,SK-MEL-5; five dose,67.60 µM
same,TGI,COLO 205; five dose,100 µM
same,GI50,"COLO 205; Homo sapiens, five dose",10.3 µM
same,IC50,"COLO 205; Homo sapiens, five dose",17.8 µM
same,inhibition at 10 µM,COLO 205; [1],29.9%
same,GI50,"OVCAR-3; Homo sapiens, five dose",0.32 µM
same,IC50,"OVCAR-3; Homo sapiens, five dose",0.676 µM
same,inhibition at 10 µM,OVCAR-3; [1],114%
same,TGI,OVCAR-3; five dose,87.80 µM
same,GI50,"NCI-H226; Homo sapiens, five dose",0.27 µM
same,IC50,"NCI-H226; Homo sapiens, five dose",0.871 µM
same,inhibition at 10 µM,NCI-H226; [1],31.2%
same,TGI,NCI-H226; five dose,100 µM
same,GI50,"MDA-MB-435; Homo sapiens, MDA-MB-435",27.2 µM
same,IC50,"MDA-MB-435; Homo sapiens, MDA-MB-435",38 µM
same,inhibition at 10 µM,"MDA-MB-435; Homo sapiens, MDA-MB-435, read-out: Growth inhibition (%)",-1.7%
same,LC50 (50% lethal concentration),"MDA-MB-435; Homo sapiens, MDA-MB-435, five dose",> 100 µM
same,TGI,"MDA-MB-435; MDA-MB-435, five dose",100 µM
same,GI50,"SF-268; Homo sapiens, five dose",16.4 µM
same,IC50,"SF-268; Homo sapiens, five dose",46.8 µM
same,inhibition at 10 µM,SF-268; [1],14.4%
same,TGI,SF-268; five dose,100 µM
same,GI50,"SR; Homo sapiens, five dose",14.1 µM
same,IC50,"SR; Homo sapiens, five dose",25.1 µM
same,LC50,"SR; Homo sapiens, five dose",> 100 µM
same,inhibition at 10 µM,SR; [1],33.2%
same,TGI,SR; five dose,100 µM
same,GI50,"ACHN; Homo sapiens, five dose",15.7 µM
same,IC50,"ACHN; Homo sapiens, five dose",29.5 µM
same,"LC50 (NCI-60 lethal concentration, 50% net cell kill)","ACHN; Homo sapiens, five dose",> 100 µM
same,inhibition at 10 µM,ACHN; [1],34.3%
same,TGI,ACHN; five dose,100 µM
same,GI50,"RXF 393; Homo sapiens, five dose",11.3 µM
same,IC50,"RXF 393; Homo sapiens, five dose",37.2 µM
same,inhibition at 10 µM,RXF 393; [1],30.1%
same,TGI,RXF 393; five dose,100 µM
same,GI50,"SK-OV-3; Homo sapiens, five dose",12 µM
same,IC50,"SK-OV-3; Homo sapiens, five dose",44.7 µM
same,inhibition at 10 µM,SK-OV-3; [1],28.2%
same,TGI,SK-OV-3; five dose,100 µM
same,TGI,786-0; five dose,100 µM
same,GI50,"786-0; Homo sapiens, five dose",37 µM
same,IC50,"786-0; Homo sapiens, five dose",77.6 µM
same,LC50,"786-0; Homo sapiens, five dose",> 100 µM
same,inhibition at 10 µM,786-0; [1],10%
same,GI50,"KM12; Homo sapiens, five dose",19.9 µM
same,IC50,"KM12; Homo sapiens, five dose",32.4 µM
same,inhibition at 10 µM,KM12; [1],8.58%
same,TGI,KM12; five dose,100 µM
